This experiment addresses T1, human S1P1 receptors (Homo sapiens, UniProt P21453).
T1 construct: host or cells: HEK293
The experiment in a line: S1P1R antagonist assay (fluorescent membrane potential dye, cAMP readout). It is filed as cell-based. The note with it: HEK293 cells expressing human S1P1 receptors and CNG channel; 500 nM NECA; S1P1R agonist 10 nM; 90 minutes; read-out: EC50 or IC50 value.

T1 sequence (P21453 whole entry): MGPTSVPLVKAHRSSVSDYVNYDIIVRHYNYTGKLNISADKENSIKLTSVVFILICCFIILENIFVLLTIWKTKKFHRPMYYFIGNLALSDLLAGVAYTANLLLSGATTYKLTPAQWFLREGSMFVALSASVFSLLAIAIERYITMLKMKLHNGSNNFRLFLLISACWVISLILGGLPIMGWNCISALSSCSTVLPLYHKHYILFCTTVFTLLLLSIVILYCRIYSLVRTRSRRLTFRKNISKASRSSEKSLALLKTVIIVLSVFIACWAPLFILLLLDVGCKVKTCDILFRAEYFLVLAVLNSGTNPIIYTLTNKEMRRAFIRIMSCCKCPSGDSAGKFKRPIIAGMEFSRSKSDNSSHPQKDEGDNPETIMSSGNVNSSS

Usually IC50 stands for the midpoint of a concentration-inhibition curve. `O=C(Cc1cccs1)NC(COCc1ccccc1)C(=O)Nc1ccc(Oc2ccccc2)cc1` (centres unmarked) [Compound 293, N-(2-oxo-1-{[(phenylmethyl)oxy]methyl}-2-{[4-(phenyloxy)phenyl]amino}ethyl)thien-2-ylacetamide]: the IC50 was over 1000 nM. In the case of `O=C(NC(COCc1ccccc1)C(=O)Nc1ccc(Oc2ccccc2)cc1)c1cccc2[nH]ccc12` (centres unmarked) [Compound 184, N-(3-(benzyloxy)-1-oxo-1-(4-phenoxyphenylamino)propan-2-yl)-1H-indole-4-carboxamide], the IC50 lay in the range of 300 to 1000 nM.

As for `O=C(Nc1ccc(Oc2ccc(F)cc2)cc1)[C@@H]1C[C@@H](Cc2ccccc2)CN1C(=O)CN1CCSCC1` [Compound 83, (2S,4R)-4-benzyl-N-(4-(4-fluorophenoxy)phenyl)-1-(2-thiomorpholinoacetyl)pyrrolidine-2-carboxamide], the IC50 was at most 300 nM.

For the compound `O=C1CC[C@@H](C(=O)N2C[C@H](Cc3ccccc3)C[C@H]2C(=O)Nc2ccc(Oc3ccc(F)cc3)cc2)O1` [Compound 39, (2S,4R)-4-benzyl-N-(4-(4-fluorophenoxy)phenyl)-1-((S)-5-oxotetrahydrofuran-2-carbonyl)pyrrolidine-2-carboxamide], the IC50 was at most 300 nM. As for `CC(O)CC(=O)N1C[C@H](Cc2ccccc2)C[C@H]1C(=O)Nc1ccc(Oc2ccc(F)cc2)cc1` (stereo partly drawn) [Compound 118, (2S,4R)-4-benzyl-N-(4-(4-fluorophenoxy)phenyl)-1-(3-hydroxybutanoyl)pyrrolidine-2-carboxamide], the figure is at most 300 nM; as for `COc1ccc(OC)c(CCC(=O)NC(COCc2ccccc2)C(=O)Nc2ccc(Oc3ccccc3)cc2)c1` (centres unmarked) [Compound 382, N-(2-oxo-1-{[(phenylmethyl)oxy]methyl}-2-{[4-(phenyloxy)phenyl]amino}ethyl)-3-(2,5-dimethoxyphenyl)propanamide], over 1000 nM.

Take `O=C(Nc1ccc(Oc2ccc(F)cc2)cc1)[C@@H]1C[C@@H](Cc2cccc(F)c2)CN1C(=O)Cn1nccn1` [Compound 49, (2S,4R)-1-(2-(2H-1,2,3-triazol-2-yl)acetyl)-4-(3-fluorobenzyl)-N-(4-(4-fluorophenoxy)phenyl)pyrrolidine-2-carboxamide]: the IC50 was at most 300 nM. Under `O=C(Nc1ccc(Oc2ccc(Cl)cc2)cc1)[C@@H]1C[C@@H](Cc2ccccc2)CN1C(=O)Cn1cncn1` [Compound 79, (2S,4R)-1-(2-(1H-1,2,4-triazol-1-yl)acetyl)-4-benzyl-N-(4-(4-chlorophenoxy)phenyl)pyrrolidine-2-carboxamide] stands at most 300 nM. Take `O=C(Nc1ccc(Oc2ccc(F)cc2)cc1)[C@@H]1C[C@@H](Cc2ccsc2)CN1C(=O)Cn1cncn1` [Compound 72, (2S,4R)-1-(2-(1H-1,2,4-triazol-1-yl)acetyl)-N-(4-(4-fluorophenoxy)phenyl)-4-(thiophen-3-ylmethyl)pyrrolidine-2-carboxamide]: the IC50 is at most 300 nM. Regarding `O=C(NC(COCc1ccccc1)C(=O)Nc1ccc(Oc2ccccc2)cc1)c1cccnc1Cl` (centres unmarked) [Compound 296, 2-chloro-N-(2-oxo-1-{[(phenylmethyl)oxy]methyl}-2-{[4-(phenyloxy)phenyl]amino}ethyl)pyridine-3-carboxamide], the IC50 is over 1000 nM. Under `O=C(Cc1c[nH]cn1)N[C@@H](COCc1ccccc1)C(=O)Nc1ccc(Oc2ncc(Br)s2)cc1` [Compound 156, (S)-2-(2-(1H-imidazol-4-yl)acetamido)-3-(benzyloxy)-N-(4-(5-bromothiazol-2-yloxy)phenyl)propanamide] stands at most 300 nM; under `O=C(Cn1cncn1)N[C@@H](COCc1ccccc1Cl)C(=O)Nc1ccc(Oc2ccc(F)cc2)cc1` [Compound 181, (S)-2-(2-(1H-1,2,4-triazol-1-yl)acetamido)-3-(2-chlorobenzyloxy)-N-(4-(4-fluorophenoxy)phenyl)propanamide], at most 300 nM. Under `O=C(Cc1coc(-c2ccccc2)n1)N[C@@H](COCc1ccc(F)cc1)C(=O)Nc1ccc(Oc2ccc(F)cc2)cc1` [Compound 44, (S)-3-(4-fluorobenzyloxy)-N-(4-(4-fluorophenoxy)phenyl)-2-(2-(2-phenyloxazol-4-yl)acetamido)propanamide] stands over 1000 nM; under `O=C(NC(COCc1ccccc1)C(=O)Nc1ccc(Oc2ccccc2)cc1)c1ccc(F)cc1C(F)(F)F` (centres unmarked) [Compound 330, 4-fluoro-N-(2-oxo-1-{[(phenylmethyl)oxy]methyl}-2-{[4-(phenyloxy)phenyl]amino}ethyl)-2-(trifluoromethyl)benzamide], over 1000 nM.

Regarding `COC(=O)CCC(=O)N1C[C@H](Cc2ccccc2)C[C@H]1C(=O)Nc1ccc(Oc2ccc(F)cc2)cc1` [Compound 125, methyl 4-((2S,4R)-4-benzyl-2-(4-(4-fluorophenoxy)phenylcarbamoyl)pyrrolidin-1-yl)-4-oxobutanoate], the IC50 is at most 300 nM. Under `O=C(NC(COCc1ccccc1)C(=O)Nc1ccc(Oc2ccccc2)cc1)c1cnc2ccccc2c1` (centres unmarked) [Compound 350, N-(2-oxo-1-{[(phenylmethyl)oxy]methyl}-2-{[4-(phenyloxy)phenyl]amino}ethyl)quinoline-3-carboxamide] stands over 1000 nM. As for `COc1ccc(C2(C(=O)NC(COCc3ccccc3)C(=O)Nc3ccc(Oc4ccccc4)cc3)CC2)cc1` (centres unmarked) [Compound 360, N-(2-oxo-1-{[(phenylmethyl)oxy]methyl}-2-{[4-(phenyloxy)phenyl]amino}ethyl)-1-(4-methoxyphenyl)cyclopropanecarboxamide], the figure is over 1000 nM. Under `O=C(CSCc1ccccc1)NC(COCc1ccccc1)C(=O)Nc1ccc(Oc2ccccc2)cc1` (centres unmarked) [Compound 374, N-(2-oxo-1-{[(phenylmethyl)oxy]methyl}-2-{[4-(phenyloxy)phenyl]amino}ethyl)-2-(benzylthio)acetamide] stands over 1000 nM. Take `O=C(CCc1cccnc1)NC(COCc1ccccc1)C(=O)Nc1ccc(Oc2ccccc2)cc1` (centres unmarked) [Compound 369, N-(2-oxo-1-{[(phenylmethyl)oxy]methyl}-2-{[4-(phenyloxy)phenyl]amino}ethyl)-3-(pyridin-3-yl)propanamide]: the IC50 was over 1000 nM. Under `COc1ccccc1CCC(=O)NC(COCc1ccccc1)C(=O)Nc1ccc(Oc2ccccc2)cc1` (centres unmarked) [Compound 394, N-(2-oxo-1-{[(phenylmethyl)oxy]methyl}-2-{[4-(phenyloxy)phenyl]amino}ethyl)-3-(2-methoxyphenyl)propanamide] stands over 1000 nM. Turning to `O=C(Cc1c[nH]cn1)N[C@@H](COCc1ccccc1)c1nc2cc(Oc3ccc(F)cc3)ccc2[nH]1` [Compound 59, (R)—N-(2-(benzyloxy)-1-(5-(4-fluorophenoxy)-1H-benzo[d]imidazol-2-yl)ethyl)-2-(1H-imidazol-4-yl)acetamide], the IC50 was in the range of 300 to 1000 nM.

As to `O=C(NC(COCc1ccccc1)C(=O)Nc1ccc(Oc2ccccc2)cc1)c1ccco1` (centres unmarked) [Compound 283, N-(2-oxo-1-{[(phenylmethyl)oxy]methyl}-2-{[4-(phenyloxy)phenyl]amino}ethyl)furan-2-carboxamide], the IC50 was over 1000 nM.

With `COCC(=O)N1C[C@H](Cc2ccccc2)C[C@H]1C(=O)Nc1ccc(Oc2ccc(F)cc2)cc1` [Compound 122, (2S,4R)-4-benzyl-N-(4-(4-fluorophenoxy)phenyl)-1-(2-methoxyacetyl)pyrrolidine-2-carboxamide], the IC50 is at most 300 nM. With `O=C(Nc1ccc(Oc2ccc(F)cc2)cc1)[C@@H]1C[C@@H](Cc2ccc(Cl)s2)CN1C(=O)Cn1cncn1` [Compound 67, (2S,4S)-1-(2-(1H-1,2,4-triazol-1-yl)acetyl)-4-((5-chlorothien-2-yl)methyl)-N-(4-(4-fluorophenoxy)phenyl)pyrrolidine-2-carboxamide], the IC50 is at most 300 nM.

Regarding `O=C(CCN1C(=O)c2ccccc2C1=O)NC(COCc1ccccc1)C(=O)Nc1ccc(Oc2ccccc2)cc1` (centres unmarked) [Compound 322, N-(2-oxo-1-{[(phenylmethyl)oxy]methyl}-2-{[4-(phenyloxy)phenyl]amino}ethyl)-3-(1,3-dioxoisoindolin-2-yl)propanamide], the IC50 was over 1000 nM. Under `CC(=O)Oc1ccc(C(=O)NC(COCc2ccccc2)C(=O)Nc2ccc(Oc3ccccc3)cc2)cc1` (centres unmarked) [Compound 17, 4-(3-(benzyloxy)-1-oxo-1-(4-phenoxyphenylamino)propan-2-ylcarbamoyl)phenyl acetate] stands over 1000 nM; under `O=C(Cc1cnc[nH]1)N[C@@H](CCCc1ccccc1)C(=O)Nc1ccc(Oc2ccc(F)cc2)cc1` [Compound 137, (S)-2-(2-(1H-imidazol-5-yl)acetamido)-5-phenyl-N-(4-(4-fluorophenoxy)phenyl)pentanamide], at most 300 nM; under `Cc1ccc(C)c(CC(=O)NC(COCc2ccccc2)C(=O)Nc2ccc(Oc3ccccc3)cc2)c1` (centres unmarked) [Compound 373, N-(2-oxo-1-{[(phenylmethyl)oxy]methyl}-2-{[4-(phenyloxy)phenyl]amino}ethyl)-2-(2,5-dimethylphenyl)acetamide], over 1000 nM. Under `O=C(CCCC(=O)c1ccccc1)NC(COCc1ccccc1)C(=O)Nc1ccc(Oc2ccccc2)cc1` (centres unmarked) [Compound 318, 5-oxo-N-(2-oxo-1-{[(phenylmethyl)oxy]methyl}-2-{[4-(phenyloxy)phenyl]amino}ethyl)-5-phenylpentanamide] stands over 1000 nM; under `O=C(Cn1nnc2ccccc21)N[C@@H](COCc1ccccc1)C(=O)Nc1ccc(Oc2ccc(F)cc2)cc1` [Compound 151, (S)-2-(2-(1H-benzo[d][1,2,3]triazol-1-yl)acetamido)-3-(benzyloxy)-N-(4-(4-fluorophenoxy)phenyl)propanamide], at most 300 nM. As for `O=C(CN1CCN(c2ncccn2)CC1)N[C@@H](COCc1ccccc1)C(=O)Nc1ccc(Oc2ccc(F)cc2)cc1` [Compound 41, (S)-3-(benzyloxy)-N-(4-(4-fluorophenoxy)phenyl)-2-(2-(4-(pyrimidin-2-yl)piperazin-1-yl)acetamido)propanamide], the figure is over 1000 nM; as for `O=C(Nc1ccc(Oc2ccc(F)cc2)cc1)[C@@H]1C[C@@H](Cc2ccc(F)c(F)c2)CN1C(=O)Cn1ccnn1` [Compound 226, (2S,4R)-1-(2-(1H-1,2,3-triazol-1-yl)acetyl)-4-(3,4-difluorobenzyl)-N-(4-(4-fluorophenoxy)phenyl)pyrrolidine-2-carboxamide], at most 300 nM.

(Values after patent publication US8791102B2, “Acetanilide sphingosine-1-phosphate receptor antagonists” (Exelixis, Inc., priority 2008, dated 2014).)
